Measured values from EP0012435A2, “Isoxazole derivatives, process for their preparation, medicines containing them and intermediates required in this process” (HOECHST AKTIENGESELLSCHAFT, priority 1978, dated 1980).
Marks after values point to notes of the source that are not given here.

What was measured:
[1] = tested on: männliche Ratten eines Wistar-Lewis-Stammes; assay: Adjuvant arthritis, preventive test (method of Pearson); assay type: in vivo; conditions: for ED50: Rattus norvegicus, 408 h, read-out: Adjuvans-Arthritis ED50; for Therapeut. Index UD50 / ED50: ratio of ulcerogenic UD50 to adjuvant arthritis ED50
Source text: 1. Adjuvans-Arthritis, praeventive Testung
Die Untersuchungen wurden nach der Methode von Pearson durchgeführt (Arthrit. Rheum. 2, 440 (1959)). Als Versuchstiere dienten männliche Ratten eines Wistar-Lewis-Stammes im Körpergewicht zwischen 130 und 200 g. Die zu prüfenden Verbindungen wurden täglich vom 1. bis 17. Versuchstag oral appliziert. Tiere einer Kontrollgruppe erhielten nur das Lösungsmittel. Als Wirkungskriterium diente die Herabsetzung der Pfoten-Volumenzunahme gegenüber der unbehandelten Kontrollgruppe. Die ED50-Werte wurden graphisch aus der Dosiswirkungskurve bestimmt.

[2] = Ulcerogenic effect (gastric mucosal lesions after oral dose); assay type: in vivo, Ratten; conditions: rat, gastric mucosa, fasted rats, killed 24 h after dose, UD50 by Litchfield and Wilcoxon, read-out: Ulzerogenität UD50
Source text: (§1) Die Untersuchungen erfolgten an männlichen Sprague-Dawley Ratten im Körpergewicht zwischen 200 und 300 g. 48 Stunden vor Applikation der Testsubstanzen bis zum Töten der Tiere wurde das Futter entzogen, bei freiem Zugang zum Trinkwasser. Die Ratten wurden 24 Stunden nach oraler Gabe getötet, der Magen entommen, unter fließendem Wasser gereinigt und auf Schleimhautlösionen inspiziert. Als Ulzera galten alle makroskopisch sichtbaren Läsionen. Bestimmt wurde der Anteil der Tiere mit Ulzera pro dosi und die UD50 nach Litchfield und Wilcoxon (J. Pharmacol. exp. Ther. 96, 99 (1949)).

Acute toxicity = conditions: mouse, in vivo, ip; NMRI mice, intraperitoneal, mortality within 7 days; read-out: Toxizität LD50-Bereich (Maus i.p.)
Source text: Die Bestimmung der LD50-Bereiche erfolgte standardgemäß über die innerhalb von 7 Tagen bei NMRI-Mäusen nach intraperitonealer Gabe auftretende Mortalität.

NMRI-Mäusen = conditions: literature value (Barnes and Eltherington, Drug Dosage in Laboratory Animals, 1973, p. 199); cited from earlier work
[3] = tested on: männlichen Sprague-Dawley Ratten; assay: Ulcerogenic effect (gastric mucosal lesions after oral dose); assay type: in vivo; conditions: fasted rats, killed 24 h after dose, UD50 by Litchfield and Wilcoxon
Source text: as §1

[4] = oral, daily from day 1 to 17, reduction of paw volume increase vs. control, ED50 read graphically from dose-response curve

Molecule | ED50 [1, 4] | Therapeut. Index UD50 / ED50 [1] | TD50 at 24 h [2] | LD50 at 168 h (Acute toxicity) | Adjuvans-Arthritis ED50 ([1]; oral, daily from day 1 to 17, reduction of paw volume increase vs. control, ED50 read graphically from dose-response curve, 24480 min) | Toxizität LD50 (Maus i.p.) (NMRI-Mäusen) | Ulzerogenität UD50 [3]
CCc1oncc1C(=O)Nc1ccc(C(F)(F)F)cc1 [Beispiel 1, N-(4-Trifluormethylphenyl)-5-äthylisoxazol-4-carboxamid] | 6 mg/kg | 12 | 70 mg/kg | 150 to 300 mg/kg |  |  | 
O=C(Nc1ccc(C(F)(F)F)cc1)c1cnoc1C(F)(F)F [Beispiel 6, N-(4-Trifluormethylphenyl)-5-trifluormethylisoxazol-4-carboxamid] | 3 mg/kg | 27 | 80 mg/kg |  |  |  | 
Cc1oncc1C(=O)Nc1ccc(Oc2ccc(C(F)(F)F)cc2)cc1 [Beispiel 10, N-[4-(4-Trifluormethylphenoxy)-phenyl]-5-methylisoxazol-4-carboxamid] | 8 mg/kg | 29 | 230 mg/kg | 150 to 300 mg/kg |  |  | 
Cc1oncc1C(=O)Nc1ccc(F)cc1 [P 25 24 959 Nr. 10, N-(4-Fluorphenyl)-5-methylisoxazol-4-carboxamid, reference compound] | 15 mg/kg | 17 | 250 mg/kg | 200 to 400 mg/kg |  |  | 
Phenylbutazon [Phenyl=butazon, reference compound] |  |  |  |  | 37 mg/kg | LD50 = 336^* mg/kg | 100 mg/kg
